Experiments:
[1] = test system: primary cortical neurons from normal mouse embryos; assay: Secreted Aβ by ELISA in primary cortical neuronal cultures; type: cell-based
Description: We have confirmed this effect of the autophagy inhibitor 3MA on Aβ production in primary cortical neuronal cultures derived from normal mouse embryos (FIG. 11). Following a media change, cultures were incubated in the presence or absence of 3MA for six hours. […] Dissected embryonic cortical tissue from Sprague-Dawley rat embryos (18d gestation) or mouse embryos (17d gestation) is rinsed with calcium/magnesium-free Hanks buffered saline solution and resuspended in 5.0 ml 0.125% trypsin and 0.5 mM EDTA at 37° C. […] Trypsin is quenched and the cells are plated at 1.5×10^6 cells/mL on polylysine coated plates and cultured at 37° C. in 5% CO2 in B27/Neurobasal medium (Gibco/BRL, Gaithersburg, Md.) containing 0.0015% fluorodeoxyuridine (FUDR), giving cultures that are >95% neuronal. For the Aβ sandwich ELISA, Nunc-Immuno Plates (Nunc A/S, Roskilde, Denmark) were coated overnight using 4° C. using antibodies specific for Aβ40 or Aβ42 in 100 mM bicarbonate buffer, pH 9.6. […] Immediately prior to being loaded on the ELISA, 1 ml of the brain homogenate was extracted in diethylamine (Sigma, St. Lousi, Minn.) by adding an equal volume of 0.4% DEA in 100 mM NaCl, re-homogenized and centrifuged for 1 hour at 100,000×g. […] Alternatively, conditioned media collected from cells was loaded neat and 1:2. Aβ-40 and Aβ-42 peptide standards were purchased from American Peptide Co. (Sunnyvale, Calif.), stored at −70° C., and diluted in EC buffer immediately prior to use. ELISA plates were incubated overnight with 4° C. with samples and standards. Aβ was detected by incubating for 4 hours at room temperature with an HRP-conjugated anti-Aβ antibody in 20 mM Na phosphate, 2 mM EDTA, 400 mM Nacl, 1.0% BSA. ELISA plates were developed using a color reaction (ABTS Peroxide Substrate System, Kirkegaard & Perry, Gaithersburg, Md.) and the OD450 read.

[2] = test system: N2a cells expressing APPswe/PS1 wt; assay: Secreted Aβ in conditioned medium by ELISA; type: cell-based, murine
Description: (§1) In a second set of experiments, N2a cells expressing APPswe/PS1 wt or APPswe/PS1Δ9 were incubated either in the presence or absence of 5 mM 3MA (FIG. 10B). Conditioned medium was collected and pooled from two plates and spun at 1000×g to remove cells and cellular debris. The amount of secreted Aβ was then determined using ELISA. In both APPswe/PS1 wt and APPswe/PS1 Δ9 N2A cells incubated in the presence of 3MA, there was a reduction of Aβ1-40 and Aβ1-42 in the conditioned medium (FIG. 10B). While the decrease was greatest in the N2A cells expressing mutant PS1, we found a significant decrease of approximately 20% or great for both Aβ species in both the wild-type and Δ9 PS1 expressing lines.
(§2) For the Aβ sandwich ELISA, Nunc-Immuno Plates (Nunc A/S, Roskilde, Denmark) were coated overnight using 4° C. using antibodies specific for Aβ40 or Aβ42 in 100 mM bicarbonate buffer, pH 9.6. Remaining protein binding sites were blocked by incubating with 1% Block Ace (Yukijirushi Milk, Sapporo Japan) in PBS for 4 hours at room temperature. 10% (w/v) homogenates were prepared from a hemibrain in 20 MM Tris, 250 mM sucrose, 1 mM EDTA, 1 mM EGTA, protease inhibitors, pH 7.4, and stored frozen at −70° C. Immediately prior to being loaded on the ELISA, 1 ml of the brain homogenate was extracted in diethylamine (Sigma, St. Lousi, Minn.) by adding an equal volume of 0.4% DEA in 100 mM NaCl, re-homogenized and centrifuged for 1 hour at 100,000×g. The supernatant was collected, neutralized with 0.1 volume 0.5 M Tris, pH 6.8, and loaded in duplicate wells both neat and diluted 1:2 in EC buffer (20 mM Na phosphate, 2 mM EDTA, 400 mM NaCl, 0.2% BSA, 0.4% Block Ace, 0.95% CHAPS). […] Alternatively, conditioned media collected from cells was loaded neat and 1:2. Aβ-40 and Aβ-42 peptide standards were purchased from American Peptide Co. (Sunnyvale, Calif.), stored at −70° C., and diluted in EC buffer immediately prior to use. ELISA plates were incubated overnight with 4° C. with samples and standards. Aβ was detected by incubating for 4 hours at room temperature with an HRP-conjugated anti-Aβ antibody in 20 mM Na phosphate, 2 mM EDTA, 400 mM Nacl, 1.0% BSA. ELISA plates were developed using a color reaction (ABTS Peroxide Substrate System, Kirkegaard & Perry, Gaithersburg, Md.) and the OD450 read.

[3] = test system: N2a cells expressing APPswe/PS1Δ9; assay: Secreted Aβ in conditioned medium by ELISA; type: cell-based, murine; settings: 5 mM 3MA, FIG. 10B
Description: as §1, §2

[4] = test system: N2a cells expressing APPswe/PS1 wt; assay: Aβ secretion, metabolic labeling and anti-Aβ immunoprecipitation, SDS-PAGE/fluorography; type: cell-based, murine
Text: (§3) Cells were then metabolically labeled for four hours, again in the absence or presence of autophagy inhibitors. The growth medium was collected and subjected to immunoprecipitation with an anti-Aβ monoclonal antibody that recognizes both Aβ1-40 and Aβ1-42. Labeled Aβ was resolved by SDS-PAGE and fluorography (FIG. 10A).

[5] = test system: N2a cells expressing APPswe/PS1Δ9; assay: as above; type: cell-based, murine
Text: as §3

[6] = test system: N2a cells expressing APPswe/PS1Δ9; assay: Tau protein levels by Western blot; type: cell-based, murine; settings: for increase in tau protein levels: FIG. 10C; for tau protein levels (Western blot): figure legend FIG. 10C
Description: There are numerous assays for tau known in the art. For example, the processing of tau by immunocytochemistry and Western blot analysis is performed using an antibody that recognizes both phosphorylated and non-phosphorylated forms (Adamec et al., Brain Res. 757:93–101, 1997). Abnormal tau conformation and byperphosphorylated tau is examined using suitable monoclonal antibodies (e.g., MC1 (Jicha et al., J. Neurosci. Res. 48:128–132) and AT8 (Innogenetics, Gent, Belgium)). EM analysis can be performed to characterize cytoskeletal changes in neurons (Nixon, Bioessays 20:798–807, 1998).

[7] = six hours incubation, ELISA, FIG. 11
[8] = 10 mM inhibitor (leucine and histidine 10 mM each), four hours metabolic labeling, growth medium, FIG. 10A top panel
[9] = 10 mM inhibitor, C-terminal antibody, FIG. 10A bottom panel

Compound	Aβ secretion into the media ([1]; figure legend FIG. 11)	reduction of Aβ40 secreted into the media [1, 7]	reduction of Aβ42 secreted into the media [1, 7]	decrease of Aβ1-40 in conditioned medium ([2]; 5 mM 3MA, ELISA, FIG. 10B) [%]	decrease of Aβ1-42 in conditioned medium ([2]; 5 mM 3MA, ELISA, FIG. 10B) [%]	Aβ secretion into the growth media (ELISA) ([2]; figure legend FIG. 10B, N2a cells, both lines shown)	decrease of Aβ1-40 in conditioned medium [3] [%]	decrease of Aβ1-42 in conditioned medium [3] [%]	amount of Aβ secreted [4, 8]	amount of full-length APP immunoprecipitated from cell lysates [4, 9]	Aβ generation (autoradiograph) ([4]; figure legend FIG. 10A, neuroblastoma cells, both lines shown)	amount of Aβ secreted [5, 8]	amount of full-length APP immunoprecipitated from cell lysates [5, 9]	increase in tau protein levels ([6]; 3MA-treated, concentration not given)	tau protein levels (Western blot) [6]	increase in tau protein levels ([6]; vinblastine 50 μM) [times]
Cn1cnc(N)c2ncnc1-2 [3MA, 3-methyladenine]	reduction	approximately 20%	approximately 20%	≥ 20	≥ 20	decreased	≥ 20	≥ 20	reduced	did not affect	decreased	reduced	did not affect	approximately 2 times	increased	–
CC[C@]1(O)C[C@@H]2CN(CCc3c([nH]c4ccccc34)[C@@](C(=O)OC)(c3cc4c(cc3OC)N(C)[C@H]3[C@@](O)(C(=O)OC)[C@H](OC(C)=O)[C@]5(CC)C=CCN6CC[C@]43[C@@H]65)C2)C1 [vinblastine]	–	–	–	–	–	–	–	–	–	–	–	–	–	–	increased	~2.5

Reference: patent US7090987B1, “Methods for the identification of compounds for the treatment of neuronal atrophy-associated dementia” (priority 1999, dated 2006)
